For orientation: Kd means the equilibrium constant for the complex coming apart. For orientation: Ki means a measure of affinity in units of concentration, obtained from inhibition or displacement.

The results in this text go back to patent publication US8959984B2, “Proteome-wide quantification of small molecule binding to cellular target proteins” (priority 2007, dated 2015).

Test [1] has as its target T1, MASTL (Homo sapiens, UniProt Q96GX5).
T1 construct: endogenous in cells; host or cells: HeLa S3
T1 sequence (Q96GX5 1-879): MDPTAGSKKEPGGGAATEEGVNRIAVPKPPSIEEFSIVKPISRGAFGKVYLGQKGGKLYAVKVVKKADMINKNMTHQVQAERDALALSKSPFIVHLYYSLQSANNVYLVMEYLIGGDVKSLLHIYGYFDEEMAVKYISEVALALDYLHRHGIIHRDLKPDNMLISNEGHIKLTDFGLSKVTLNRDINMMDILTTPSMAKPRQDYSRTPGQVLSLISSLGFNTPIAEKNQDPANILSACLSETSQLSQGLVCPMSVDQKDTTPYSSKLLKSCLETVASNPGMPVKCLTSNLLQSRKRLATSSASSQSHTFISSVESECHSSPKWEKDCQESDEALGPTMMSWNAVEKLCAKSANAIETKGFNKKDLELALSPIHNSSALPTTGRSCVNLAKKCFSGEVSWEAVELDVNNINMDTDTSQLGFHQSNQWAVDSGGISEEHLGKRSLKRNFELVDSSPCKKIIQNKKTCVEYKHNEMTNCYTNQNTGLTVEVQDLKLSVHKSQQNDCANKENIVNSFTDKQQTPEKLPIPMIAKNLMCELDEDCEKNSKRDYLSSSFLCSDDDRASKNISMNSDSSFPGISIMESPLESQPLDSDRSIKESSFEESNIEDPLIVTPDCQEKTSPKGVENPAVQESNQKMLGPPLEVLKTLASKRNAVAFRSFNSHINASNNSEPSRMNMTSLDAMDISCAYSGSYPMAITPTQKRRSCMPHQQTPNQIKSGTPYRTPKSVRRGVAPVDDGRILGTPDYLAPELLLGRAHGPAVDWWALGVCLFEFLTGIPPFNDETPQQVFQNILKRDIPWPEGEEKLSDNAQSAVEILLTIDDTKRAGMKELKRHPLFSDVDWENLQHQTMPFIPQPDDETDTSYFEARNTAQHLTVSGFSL
In words: binding to immobilized V16742 (IVA1/IVA2, HeLa lysate, MS).

The target of test [2] is T2, ADK (IPI00290279) (Homo sapiens, UniProt P55263).
T2 construct: endogenous in cells; host or cells: HeLa S3 cell lysate
Put plainly: binding to VI16742 beads (HeLa lysate, SILAC MS).

The target in test [3] is ROCK2 (Homo sapiens, UniProt O75116). In words: binding to immobilized V16742 (IVA1/IVA2, HeLa lysate, MS).
Test [4] addresses T3, MAP3K2 (Homo sapiens, UniProt Q9Y2U5).
T3 construct: endogenous in cells; host or cells: HeLa S3
T3 sequence (Q9Y2U5 1-619): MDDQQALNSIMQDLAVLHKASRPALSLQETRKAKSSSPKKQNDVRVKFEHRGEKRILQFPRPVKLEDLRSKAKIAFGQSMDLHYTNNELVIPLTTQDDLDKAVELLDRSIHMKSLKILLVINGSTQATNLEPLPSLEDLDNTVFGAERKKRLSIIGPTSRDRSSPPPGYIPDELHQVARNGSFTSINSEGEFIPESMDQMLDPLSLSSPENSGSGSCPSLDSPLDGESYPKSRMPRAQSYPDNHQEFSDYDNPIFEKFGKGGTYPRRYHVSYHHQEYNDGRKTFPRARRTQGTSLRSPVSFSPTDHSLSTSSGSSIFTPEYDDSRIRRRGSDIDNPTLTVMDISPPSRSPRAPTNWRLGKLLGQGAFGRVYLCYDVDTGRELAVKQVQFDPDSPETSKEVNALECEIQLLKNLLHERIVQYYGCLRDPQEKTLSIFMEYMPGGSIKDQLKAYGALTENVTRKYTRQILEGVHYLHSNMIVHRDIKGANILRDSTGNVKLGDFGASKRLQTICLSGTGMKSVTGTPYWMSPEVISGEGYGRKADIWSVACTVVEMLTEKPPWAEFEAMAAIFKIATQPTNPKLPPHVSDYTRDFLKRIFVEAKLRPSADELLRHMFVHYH
Described as above.

Test [5] concerns the target CK1e (CSNK1E) (Homo sapiens, UniProt P49674).

Like-named read-outs stand apart in the source and are kept apart here.

T2 sequence (P55263 whole entry): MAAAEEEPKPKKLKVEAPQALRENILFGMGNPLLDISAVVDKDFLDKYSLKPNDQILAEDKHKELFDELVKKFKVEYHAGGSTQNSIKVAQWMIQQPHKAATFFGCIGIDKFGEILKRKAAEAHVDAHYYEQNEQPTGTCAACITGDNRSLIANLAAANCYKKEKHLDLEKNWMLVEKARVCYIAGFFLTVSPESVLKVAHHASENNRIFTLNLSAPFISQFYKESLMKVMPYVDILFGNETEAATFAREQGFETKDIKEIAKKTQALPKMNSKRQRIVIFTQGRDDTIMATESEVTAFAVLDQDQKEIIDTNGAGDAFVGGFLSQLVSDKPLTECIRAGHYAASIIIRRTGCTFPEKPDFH
Sequence of CK1e (CSNK1E) (P49674 whole entry): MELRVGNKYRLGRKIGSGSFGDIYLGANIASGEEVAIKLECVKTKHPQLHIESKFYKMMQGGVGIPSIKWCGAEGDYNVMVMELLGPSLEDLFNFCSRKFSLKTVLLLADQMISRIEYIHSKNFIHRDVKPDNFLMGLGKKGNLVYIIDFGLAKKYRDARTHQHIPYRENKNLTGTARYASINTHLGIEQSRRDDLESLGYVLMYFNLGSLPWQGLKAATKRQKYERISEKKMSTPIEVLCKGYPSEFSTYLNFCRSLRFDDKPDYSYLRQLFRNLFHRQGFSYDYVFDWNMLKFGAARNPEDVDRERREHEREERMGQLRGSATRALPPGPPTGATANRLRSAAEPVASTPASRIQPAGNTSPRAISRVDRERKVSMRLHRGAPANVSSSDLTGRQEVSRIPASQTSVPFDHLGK
Sequence of ROCK2 (O75116 whole entry): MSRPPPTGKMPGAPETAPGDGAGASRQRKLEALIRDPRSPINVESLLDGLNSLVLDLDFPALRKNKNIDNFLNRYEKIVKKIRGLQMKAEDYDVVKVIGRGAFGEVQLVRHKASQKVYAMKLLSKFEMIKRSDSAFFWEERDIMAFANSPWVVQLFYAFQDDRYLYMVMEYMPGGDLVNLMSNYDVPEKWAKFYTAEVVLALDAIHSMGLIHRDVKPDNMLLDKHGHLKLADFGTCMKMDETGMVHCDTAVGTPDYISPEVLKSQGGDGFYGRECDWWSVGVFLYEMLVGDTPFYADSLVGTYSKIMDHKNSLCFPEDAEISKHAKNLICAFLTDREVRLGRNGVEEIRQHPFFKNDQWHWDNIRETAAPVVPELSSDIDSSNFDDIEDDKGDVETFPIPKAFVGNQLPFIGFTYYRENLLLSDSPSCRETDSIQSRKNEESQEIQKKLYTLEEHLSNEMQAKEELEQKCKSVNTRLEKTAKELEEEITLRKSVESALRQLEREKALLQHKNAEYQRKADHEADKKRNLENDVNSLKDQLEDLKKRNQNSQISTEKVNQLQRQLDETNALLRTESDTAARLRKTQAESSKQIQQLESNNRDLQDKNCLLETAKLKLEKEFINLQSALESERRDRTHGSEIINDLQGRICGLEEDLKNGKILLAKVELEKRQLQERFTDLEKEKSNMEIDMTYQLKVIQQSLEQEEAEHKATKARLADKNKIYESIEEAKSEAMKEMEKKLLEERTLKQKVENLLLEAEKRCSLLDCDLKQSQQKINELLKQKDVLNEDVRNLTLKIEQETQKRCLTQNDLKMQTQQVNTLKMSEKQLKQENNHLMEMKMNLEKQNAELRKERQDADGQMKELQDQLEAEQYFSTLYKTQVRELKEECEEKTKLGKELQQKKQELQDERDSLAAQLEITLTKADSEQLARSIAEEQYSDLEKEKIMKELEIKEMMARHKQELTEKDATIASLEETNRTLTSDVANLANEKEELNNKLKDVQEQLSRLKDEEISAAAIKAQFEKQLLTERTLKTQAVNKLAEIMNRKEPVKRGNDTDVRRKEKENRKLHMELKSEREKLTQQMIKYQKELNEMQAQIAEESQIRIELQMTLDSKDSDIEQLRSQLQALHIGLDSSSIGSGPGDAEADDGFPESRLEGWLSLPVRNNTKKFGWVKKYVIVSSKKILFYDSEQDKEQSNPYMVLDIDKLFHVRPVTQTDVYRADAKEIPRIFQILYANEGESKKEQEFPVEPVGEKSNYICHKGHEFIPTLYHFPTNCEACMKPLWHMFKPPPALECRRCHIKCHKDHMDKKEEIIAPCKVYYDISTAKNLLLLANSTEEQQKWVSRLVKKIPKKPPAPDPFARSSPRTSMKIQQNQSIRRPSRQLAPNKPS

For the compound `CC(C)n1c(=O)ccc2cnc(Nc3ccc(OCCN)cc3)nc21` [V16742], the “Percent bound at various 16742 conc” value in test [1] (Experiment 1, 1.87 μM 16742) worked out at 0.55%; in test [1] (Experiment 1, 8.74 μM 16742), 9.59%; in test [1] (Experiment 1, 52 μM 16742) it was 51.63%; in test [1] (Experiment 2, 52 μM 16742), 62.29%; in test [4] (Experiment 1, 1.87 μM 16742), 4.06%; in test [4] (Experiment 1, 8.74 μM 16742) it was 14.72%. Besides, the “Percent bound at various 16742 conc” value in test [4] (Experiment 1, 52 μM 16742) is given as 49.07%; in test [4] (Experiment 2, 1.87 μM 16742) it was 3.52%; in test [4] (Experiment 2, 8.74 μM 16742), 14.47%; in test [4] (Experiment 2, 52 μM 16742), 48.40%. Moreover, the Kd came out at 53.8 µM in test [1] (single Kd value, obtained from only one experiment); 53.2 µM in test [4] (Experiment 1, read-out: Kd); 54.7 µM in test [4] (Experiment 2, read-out: Kd); 53.9 µM in test [4] (average of two experiments, read-out: Kd Avg). Besides, the “r (5 h/2.5 h INC. TIME)” value in test [2] (5 h vs 2.5 h incubation time) is 1.63. Further, in test [2] (control beads vs first incubation), the “rAVERAGE (CTRL/1 INC)” value is reported as 0.05. Besides, the Ki in test [2] (immobilized VI16742) was 94.2 µM. In test [2] (second vs first incubation), the “rAVERAGE (2 INC/1 INC)” value is recorded as 0.64. For the same compound, the “affinity class of target for V16742” value in test [3] was “Very low affinity target not significantly enriched in IVA2”.
On to `COc1cc2ncnc(Nc3ccc(F)c(Cl)c3)c2cc1OCCCN1CCOCC1` [gefitinib], for which, in test [5], the “rAVERAGE (10 nM/0 nM Gef.)” value turned out to be 0.80, the “rAVERAGE (100 nM/0 nM Gef.)” value is 1.00, the “rAVERAGE (1000 nM/0 nM Gef.)” value was 0.84 and the “rAVERAGE (10000 nM/0 nM Gef.)” value came to 0.59.
